In patent US11931431B2, “PSMA-targeted radiopharmaceutical for diagnosing and treating prostate cancer” (FUTURECHEM CO., LTD, priority 2018, dated 2024):

Legend:
PSMA = PSMA (Homo sapiens, UniProt Q04609); settings: cited from earlier work
PSMA^+ PC-3 PIP tumors [1] = assay: Biodistribution test with mice transplanted with prostate cancer cell lines (gamma counter); type: in vivo, nude mouse; settings: 5 hours after injection
Procedure: After 270 minutes of [^68Ga]1e and [^68Ga]1g injection, microPET/CT images were obtained for 30 minutes, and then each organ (blood, muscle, fat, heart, lung, liver, spleen, stomach, intestine, kidney, bone and tumor) was extracted and the radioactivity thereof was measured using a gamma counter.

[2] = Measurement of lipophilicity (log P), n-octanol/PBS; type: physicochemical; settings: mean of 3
Procedure: Each of the [^68Ga]1 compounds (1˜2 mci) synthesized in Example 14 was transferred into a vial, and the solvent was removed, to which 1 mL of n-octanol and 1 mL of PBS were added, and the lid was well closed, followed by mixing with a vortex for 1 minute. After the layers were separated, 0.1 mL was taken from each layer and the radiation dose was measured. The radiation dose was measured by repeating 3 times, and the mean value was obtained.

PSMA^+ PC-3 PIP tumors [3] = assay: MicroPET/CT imaging of mice transplanted with prostate cancer cell lines; type: in vivo, nude mouse
Procedure: A tumor model was prepared by subcutaneously injecting PSMA^+ PC-3 PIP cells (a human prostate cancer cell line) to the right side of the nude mouse hind leg. Each of the ^68Ga-labeled compounds [^68Ga]1e, [^68Ga]1g, [^68Ga]1h and [^68Ga]1k was intravenously injected with 5.5 to 6.5 MBq (148-175 μCi/200 μL), and PET/CT images were obtained using small animal INVEON PET/CT (Siemens medical solutions, Knoxville, USA) for 60 minutes. After 150 minutes, 270 minutes, and 390 minutes, PET/CT images were also obtained for 30 minutes. The obtained PET/CT image results were quantitatively analyzed using Inveon™ Research Workplace (IRW).
FIGS. 1, 2, 3, and 4 are graphs showing the quantitative analysis results of MicorPET/CT images for [^68Ga]1e, [^68Ga]1g, [^68Ga]1h, and [^68Ga]1k in % injected dose (ID)/g, and summarized in Tables 3, 4, 5, and 6, respectively.

PSMA, sequence (Q04609 whole entry): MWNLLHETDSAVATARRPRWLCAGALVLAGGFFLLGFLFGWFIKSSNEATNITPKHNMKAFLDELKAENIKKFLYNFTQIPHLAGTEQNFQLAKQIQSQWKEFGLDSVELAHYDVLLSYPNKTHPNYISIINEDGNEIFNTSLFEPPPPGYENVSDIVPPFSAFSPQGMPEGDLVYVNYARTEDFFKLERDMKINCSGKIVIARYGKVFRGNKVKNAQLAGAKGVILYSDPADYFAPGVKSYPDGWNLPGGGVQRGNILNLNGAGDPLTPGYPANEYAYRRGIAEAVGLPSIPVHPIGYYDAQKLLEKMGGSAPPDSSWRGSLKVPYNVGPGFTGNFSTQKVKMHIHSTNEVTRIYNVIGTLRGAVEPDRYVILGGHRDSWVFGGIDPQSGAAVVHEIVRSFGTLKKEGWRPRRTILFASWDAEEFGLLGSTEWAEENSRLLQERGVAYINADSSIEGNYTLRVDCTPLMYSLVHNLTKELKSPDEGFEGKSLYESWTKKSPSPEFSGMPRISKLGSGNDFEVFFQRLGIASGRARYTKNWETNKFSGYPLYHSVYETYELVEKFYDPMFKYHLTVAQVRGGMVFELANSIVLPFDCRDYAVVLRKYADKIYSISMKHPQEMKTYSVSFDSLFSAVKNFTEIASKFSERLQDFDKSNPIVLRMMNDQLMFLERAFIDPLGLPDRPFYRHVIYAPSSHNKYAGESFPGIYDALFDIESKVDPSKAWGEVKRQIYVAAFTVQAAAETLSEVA

SMILES: O=C(O)CC[C@H](NC(=O)N[C@@H](CCCCNC(=O)Nc1ccc([125I])cc1)C(=O)O)C(=O)O [[^125I]30]
- Kd (PSMA): 0.13 nM

SMILES: Cc1ccc(CCCC(=O)NCCCCC(NC(=O)CN2CCN3CCN4CCN(CC2)CC(=O)[O][68Ga]([O]C(=O)C3)[O]C(=O)C4)C(=O)NCCOCCOCC(=O)N(CCCCC(NC(=O)NC(CCC(=O)O)C(=O)O)C(=O)O)CC(=O)O)cc1 (stereo not shown) [[^68Ga]1g]
- tumor intake rate, times higher than that of [^68Ga]1e (PSMA^+ PC-3 PIP tumors [1]): about 1.4 times
- Radioactivity in mouse organ: Blood (PSMA^+ PC-3 PIP tumors [1]; gamma counter): 0.02 ± 0.03 % ID/g
- Radioactivity in mouse organ: Bone (PSMA^+ PC-3 PIP tumors [1]; gamma counter): 0.01 ± 0.01 % ID/g
- Radioactivity in mouse organ: Fat (PSMA^+ PC-3 PIP tumors [1]; gamma counter): 0.11 ± 0.15 % ID/g
- Radioactivity in mouse organ: Heart (PSMA^+ PC-3 PIP tumors [1]; gamma counter): 0.02 ± 0.01 % ID/g
- Radioactivity in mouse organ: Intestine (PSMA^+ PC-3 PIP tumors [1]; gamma counter): 0.09 ± 0.08 % ID/g
- Radioactivity in mouse organ: Kidney (PSMA^+ PC-3 PIP tumors [1]; gamma counter): 9.15 ± 11.26 % ID/g
- Radioactivity in mouse organ: Liver (PSMA^+ PC-3 PIP tumors [1]; gamma counter): 0.03 ± 0.01 % ID/g
- Radioactivity in mouse organ: Lung (PSMA^+ PC-3 PIP tumors [1]; gamma counter): 0.07 ± 0.07 % ID/g
- Radioactivity in mouse organ: Muscle (PSMA^+ PC-3 PIP tumors [1]; gamma counter): 0.01 ± 0.00 % ID/g
- Radioactivity in mouse organ: Spleen (PSMA^+ PC-3 PIP tumors [1]; gamma counter): 0.20 ± 0.27 % ID/g
- Radioactivity in mouse organ: Stomach (PSMA^+ PC-3 PIP tumors [1]; gamma counter): 0.02 ± 0.02 % ID/g
- logP [2]: −2.42
- intake of mouse organ: Bladder (PSMA^+ PC-3 PIP tumors [3]; 10 min after injection): 2.28 ± 0.11 % ID/g
- intake of mouse organ: Kidney (PSMA^+ PC-3 PIP tumors [3]; 10 min after injection): 16.40 ± 0.10 % ID/g
- intake of mouse organ: Liver (PSMA^+ PC-3 PIP tumors [3]; 10 min after injection): 9.55 ± 2.22 % ID/g
- intake of mouse organ: Muscle (PSMA^+ PC-3 PIP tumors [3]; 10 min after injection): 1.49 ± 1.64 % ID/g
- intake of mouse organ: Tumor (PIP) (PSMA^+ PC-3 PIP tumors [3]; 10 min after injection): 2.18 ± 0.63 % ID/g
- intake of mouse organ: Bladder (PSMA^+ PC-3 PIP tumors [3]; 20 min after injection): 6.98 ± 2.51 % ID/g
- intake of mouse organ: Kidney (PSMA^+ PC-3 PIP tumors [3]; 20 min after injection): 19.80 ± 0.73 % ID/g
- intake of mouse organ: Liver (PSMA^+ PC-3 PIP tumors [3]; 20 min after injection): 7.26 ± 1.06 % ID/g
- intake of mouse organ: Muscle (PSMA^+ PC-3 PIP tumors [3]; 20 min after injection): 1.88 ± 2.00 % ID/g
- intake of mouse organ: Tumor (PIP) (PSMA^+ PC-3 PIP tumors [3]; 20 min after injection): 4.42 ± 1.50 % ID/g
- intake of mouse organ: Bladder (PSMA^+ PC-3 PIP tumors [3]; 30 min after injection): 13.51 ± 5.83 % ID/g
- intake of mouse organ: Kidney (PSMA^+ PC-3 PIP tumors [3]; 30 min after injection): 21.18 ± 2.17 % ID/g
- intake of mouse organ: Liver (PSMA^+ PC-3 PIP tumors [3]; 30 min after injection): 6.10 ± 0.50 % ID/g
- intake of mouse organ: Muscle (PSMA^+ PC-3 PIP tumors [3]; 30 min after injection): 1.69 ± 1.78 % ID/g
- intake of mouse organ: Tumor (PIP) (PSMA^+ PC-3 PIP tumors [3]; 30 min after injection): 5.43 ± 1.94 % ID/g
- intake of mouse organ: Bladder (PSMA^+ PC-3 PIP tumors [3]; 40 min after injection): 18.89 ± 8.84 % ID/g
- intake of mouse organ: Kidney (PSMA^+ PC-3 PIP tumors [3]; 40 min after injection): 22.74 ± 3.48 % ID/g
- intake of mouse organ: Liver (PSMA^+ PC-3 PIP tumors [3]; 40 min after injection): 5.38 ± 0.22 % ID/g
- intake of mouse organ: Muscle (PSMA^+ PC-3 PIP tumors [3]; 40 min after injection): 1.61 ± 1.69 % ID/g
- intake of mouse organ: Tumor (PIP) (PSMA^+ PC-3 PIP tumors [3]; 40 min after injection): 6.43 ± 2.32 % ID/g
- intake of mouse organ: Bladder (PSMA^+ PC-3 PIP tumors [3]; 50 min after injection): 22.76 ± 10.86 % ID/g
- intake of mouse organ: Kidney (PSMA^+ PC-3 PIP tumors [3]; 50 min after injection): 24.20 ± 4.60 % ID/g
- intake of mouse organ: Liver (PSMA^+ PC-3 PIP tumors [3]; 50 min after injection): 4.75 ± 0.07 % ID/g
- intake of mouse organ: Muscle (PSMA^+ PC-3 PIP tumors [3]; 50 min after injection): 1.54 ± 1.62 % ID/g
- intake of mouse organ: Tumor (PIP) (PSMA^+ PC-3 PIP tumors [3]; 50 min after injection): 7.33 ± 2.76 % ID/g
- intake of mouse organ: Bladder (PSMA^+ PC-3 PIP tumors [3]; 60 min after injection): 24.74 ± 11.23 % ID/g
- intake of mouse organ: Kidney (PSMA^+ PC-3 PIP tumors [3]; 60 min after injection): 25.78 ± 4.72 % ID/g
- intake of mouse organ: Liver (PSMA^+ PC-3 PIP tumors [3]; 60 min after injection): 4.41 ± 0.03 % ID/g
- intake of mouse organ: Muscle (PSMA^+ PC-3 PIP tumors [3]; 60 min after injection): 1.32 ± 1.33 % ID/g
- intake of mouse organ: Tumor (PIP) (PSMA^+ PC-3 PIP tumors [3]; 60 min after injection): 8.29 ± 2.99 % ID/g
- intake of mouse organ: Bladder (PSMA^+ PC-3 PIP tumors [3]; 150 min after injection): 42.3 ± 41.58 % ID/g
- intake of mouse organ: Kidney (PSMA^+ PC-3 PIP tumors [3]; 150 min after injection): 15.75 ± 11.53 % ID/g
- intake of mouse organ: Liver (PSMA^+ PC-3 PIP tumors [3]; 150 min after injection): 0.45 ± 0.11 % ID/g
- intake of mouse organ: Muscle (PSMA^+ PC-3 PIP tumors [3]; 150 min after injection): 0.21 ± 0.03 % ID/g
- intake of mouse organ: Tumor (PIP) (PSMA^+ PC-3 PIP tumors [3]; 150 min after injection): 11.4 ± 5.23 % ID/g
- intake of mouse organ: Bladder (PSMA^+ PC-3 PIP tumors [3]; 270 min after injection): 12.05 ± 2.76 % ID/g
- intake of mouse organ: Kidney (PSMA^+ PC-3 PIP tumors [3]; 270 min after injection): 12.45 ± 9.69 % ID/g
- intake of mouse organ: Liver (PSMA^+ PC-3 PIP tumors [3]; 270 min after injection): 0.22 ± 0.01 % ID/g
- intake of mouse organ: Muscle (PSMA^+ PC-3 PIP tumors [3]; 270 min after injection): 0.06 ± 0.02 % ID/g
- intake of mouse organ: Tumor (PIP) (PSMA^+ PC-3 PIP tumors [3]; 270 min after injection): 13.00±4.95 % ID/g
- tumor intake increase compared to [^68Ga]1e (PSMA^+ PC-3 PIP tumors [3]; 270 minutes): about 3 times
- excretion, in words (PSMA^+ PC-3 PIP tumors [3]; MicroPET/CT): rapidly excreted out of the body
- residence time in the blood, in words (PSMA^+ PC-3 PIP tumors [3]; MicroPET/CT): residence time in the blood was increased
- tumor intake over time, in words (PSMA^+ PC-3 PIP tumors [3]; MicroPET/CT): tumor intake was increased over time
